Source: patent publication US10722480B2, “Agent for controlling cells constituting cancer microenvironment or inflammatory microenvironment” (The University of Tokyo, priority 2015, dated 2020)

Assays:
[1] = tested on: macrophages in tumor sites; assay: Macrophage accumulation in tumor sites (lung metastasis model); assay type: in vivo, mouse; details: wild-type mice, vs solvent
Method: Lung cells of the lung metastasis model of wild-type mice described in the section 4 above or lung cells of the lung metastasis model of FNT-cKO mice and FNT^flox/flox mice described in the section 7(2) above were obtained from the right lower lobe by digestion with collagenase and DNase. The cells were washed with PBS supplemented with 2% fetal bovine serum, resuspended, and filtered through a 70-μm strainer. The Fc receptor was blocked by incubation with an anti-mouse CD16/32 antibody (BD biosciences), and thereafter the cells were stained with a fluorescently labeled antibody. Anti-mouse CD11b-Brilliant Violet 510, anti-mouse Ly6C-APC-Cy7, and anti-mouse Ly6G-Alexa Fluor 700 were purchased from Biolegend. The stained cells were analyzed using the Gallios flow cytometer (Beckman coulter). Each mouse was perfused with PBS, and the left lung was isolated. Optimal Cutting Temperature Compound (OCT) (Sakura Finetek) was injected from the trachea to embed the lung in OCT, and the lung was then frozen in liquid nitrogen. Fresh frozen sections with a thickness of 8 μm were prepared, and fixed with 4% paraformaldehyde-PBS. […] Fluorescence Images were obtained with an SP5 confocal microscope (Leica Microsystems).

[2] = tested on: human leukocyte cell line THP-1; assay: In vitro chemotaxis assay, THP-1; assay type: cell-based; details: THP-1, concentration without cytotoxicity
Method: A human leukocyte cell line THP-1 was counted and resuspended in Boyden buffer (RPMI medium supplemented with 0.1% BSA), and the cells were preincubated with disulfiram before the chemotaxis assay. The cell migration activity was measured using a 96-well ChemoTX Chemotaxis Chamber (Neuro probe) with a polycarbonate filter with a pore size of […] Chemokine was applied to the lower chamber of the plate, and the cells were applied to the upper chamber. After incubation at 37° C. in 5% CO2 for 90 minutes, the filter was removed, and the number of migrated cells in the lower chamber was counted using Cell Counting Kit F (Dojindo Laboratories).

[3] = target: T1, Full-length FROUNT protein (Homo sapiens, UniProt Q9BW27); assay: Surface plasmon resonance binding to FROUNT; details: SPR
T1 construct: made in house
T1 sequence (Q9BW27 1-656): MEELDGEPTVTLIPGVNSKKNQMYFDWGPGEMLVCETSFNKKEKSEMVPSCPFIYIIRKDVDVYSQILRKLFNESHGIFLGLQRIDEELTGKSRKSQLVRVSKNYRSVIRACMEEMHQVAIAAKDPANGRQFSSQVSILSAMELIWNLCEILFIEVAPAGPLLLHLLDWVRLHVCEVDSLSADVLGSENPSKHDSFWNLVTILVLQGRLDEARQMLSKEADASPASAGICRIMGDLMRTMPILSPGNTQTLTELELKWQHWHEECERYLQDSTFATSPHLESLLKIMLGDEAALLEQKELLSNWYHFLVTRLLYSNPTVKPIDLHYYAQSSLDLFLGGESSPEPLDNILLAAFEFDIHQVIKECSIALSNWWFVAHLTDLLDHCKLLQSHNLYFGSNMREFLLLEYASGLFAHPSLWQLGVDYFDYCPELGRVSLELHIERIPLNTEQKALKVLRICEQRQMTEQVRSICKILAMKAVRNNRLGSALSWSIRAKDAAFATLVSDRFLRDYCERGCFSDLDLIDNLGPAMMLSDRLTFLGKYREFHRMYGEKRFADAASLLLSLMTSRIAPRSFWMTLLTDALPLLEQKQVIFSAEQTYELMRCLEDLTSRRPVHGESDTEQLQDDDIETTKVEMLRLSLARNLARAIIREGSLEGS
Method: Interactions between FROUNT and compounds in the library were analyzed by surface plasmon resonance (SPR) using Biacore […] (GE Healthcare). Full-length FROUNT protein (SEQ ID NO:2) (Esaki, K. et al. Protein Expr Purif 77, 86-91, (2011)) was immobilized on a CM5 sensor chip. Solutions of disulfiram prepared by serial dilution in HBS-EP buffer containing 2% DMSO (GE Healthcare) were applied to the sensor chip at a flow rate of 30 μL/min. The resonance unit (RU) was measured during the process from the binding to the washing to analyze the binding dynamics. Biacore T100 evaluation software was used to carry out solvent correction for DMSO.

FROUNT-CCR2 interaction = target: T2, FROUNT-CCR2 interaction (Homo sapiens, UniProt Q9BW27); assay: HTRF binding inhibition assay, FROUNT-CCR2 interaction
T2 construct: made in house
T2 sequence (Q9BW27 500-656): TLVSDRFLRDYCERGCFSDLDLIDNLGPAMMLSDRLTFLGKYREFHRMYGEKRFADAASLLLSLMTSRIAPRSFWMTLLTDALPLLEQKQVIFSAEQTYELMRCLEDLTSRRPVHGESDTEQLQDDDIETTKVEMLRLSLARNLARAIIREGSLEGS
Method: For the screening, a compound library containing 131,200 kinds of compounds dissolved in DMSO at a concentration of 10 mM or 2 mM (obtained from Open Innovation Center for Drug Discovery, the University of Tokyo) was used. The HTRF assay was carried out using a 384-well low-dose white microplate (Corning Coaster; catalog number 3676). In each well, 4 μL of a solution of 20 nM GST fusion FROUNT protein (a recombinant polypeptide prepared by fusing GST to aa 500-656 of SEQ ID NO:2), and DMSO or test compounds were mixed with a binding buffer (10 mM HEPES [pH 7.4], 0.2 M potassium fluoride, 10 mM NaCl, 0.1% Tween 20, and 0.5% bovine serum albumin [BSA]), and the plate was incubated at room temperature for 30 minutes. […]. After incubation at room temperature for 20 hours, the HTRF signal was measured at emission wavelengths of 620 nm and 665 nm using a multilabel counter EnVision (PerkinElmer).
By the same HTRF assay as described above, the abilities of disulfiram to inhibit the FROUNT-CCR2 interaction or the FROUNT-CCR5 interaction were investigated. As the CCR5 pro-C peptide, the 16 residues […] (SEQ ID NO:4) in the C-terminal region of CCR5 was used. As a control, the p53-MDM2 interaction (which is inhibited by an MDM-2-specific inhibitor Nutlin), which is also a helix peptide-protein interaction like the interaction between FROUNT and CCR2 or CCR5 but is not related thereto, was used.

CCN(CC)C(=S)SSC(=S)N(CC)CC [DSF, disulfiram]
accumulation of macrophages in tumor sites [1]: reduced | cell migration mediated by CCL2 [2]: inhibited | binding to FROUNT protein [3]: directly bound | inhibitory action against FROUNT-CCR2 relative to p53-MDM2 (FROUNT-CCR2 interaction): about 100 times | inhibition of FROUNT-CCR2 interaction (FROUNT-CCR2 interaction; HTRF, result in words): selectively inhibited | IC50 (FROUNT-CCR2 interaction; HTRF, read-out: FROUNT inhibition (IC50 against FROUNT-CCR2)): 42 nM
